The values that follow come from article PMC11206789, “Controlling the Solubility, Release Rate and Permeation of Riluzole with Cyclodextrins” (Pharmaceutics, 2024).

The conditions of data set [1]: 298.15 K, in water with undefined pH; cited from earlier work.
A short description of data set [2]: RLZ/CD stability constant from phase-solubility diagrams, van't Hoff thermodynamics. The settings on record: for Complexation (stability) constant KCS of RLZ/CD complex: 1:1 complex. It counts as physicochemical. The procedure: The standard (at 298.15 K) enthalpy change ( ΔHC0,S ) and the standard entropy change ( ΔSC0,S ) upon complex formation were calculated with the help of the integral form of the van’t Hoff’s equation:(4) lnKCS=−ΔHC0,S/RT+ΔSC0,S/R where T = 298.15 K, and R is the universal gas constant. A plot of lnKCS versus 1/T produces Slope=−ΔHC0,S/R and intercept equal to ΔSC0,S/R . The standard (at 298.15 K) change of the complexation Gibbs energy ( ΔGC0,S ) was calculated as follows:(5) ΔGC0,S=−RTlnKCS

The nature of data set [3]: Permeation under dynamic conditions (D/P setup), cellulose membrane. The note with it: RC membrane, 310.15 K. Format: in vitro ADME. The text has this: The membrane of regenerated cellulose MWCO 12–14 kDa (Visking dialysis tubing MWCO 12–14 kDa, Medicell Membranes Ltd., London, UK) was applied as a barrier between the donor and receptor cells with an effective surface area of 1.77 cm^2. In addition, the PermeaPad barrier (PP) (PHABIOC, Germany, https://www.permeapad.com (accessed on 1 February 2023)) and polydimethylsiloxane-polycarbonate (55% polydimethylsiloxane and 45% polycarbonate, 40 μm in thickness) membrane “Carbosil” (PDS) (PENTAMED, Moscow, Russia, www.penta-med.ru) were used in a series of tests. The volume of the receptor compartment was the same as the donor one—7 mL. The donor and receptor cells were assembled with a membrane between them. The receptor compartment was filled with 7 mL of buffer pH 6.8. In the case of the samples with CD, the receptor solution contained the amount of CD equivalent to that in the solid sample. The solution in the receptor cell was stirred at 500 rpm. The constant temperature of 310.15 K was maintained. […]
Quantitative analysis of the permeation was evaluated using the flux (J) through the membrane which was determined as a slope of the permeation profiles representing the amount of permeated compound over the surface area (dQ/A) versus the time (t) in accordance with the equation:(20) J=dQ/A×dt

A short description of data set [4]: Dissolution of solid samples under dynamic conditions, side-by-side cell. Format: physicochemical. The note with it: for DE60, dissolution efficacy at 60 min / DPP, dissolution performance parameter / Q15, amount of RLZ dissolved at 15 min: buffer pH 6.8, 310 K; for Q15, amount of RLZ dissolved at 15 min: RLZ amount of 100 mg daily dose; for Dose dissolved during 180 min: buffer pH 6.8, 310.15 K. How it is done: The volume of the donor compartment was 7 mL. The powdered samples were placed in the donor cell. Then, 7 mL of buffer pH 6.8 was added to the donor compartment (start of the experiment). The solution was stirred with a stirring bar at a fixed speed of 500 rpm. The cell was maintained at 310.15 K during the experiment via water circulating. The samples of the solutions (V = 0.4 mL) from the donor cell were withdrawn every 5, 10, 15, 20, 25, 30, 40, 60, 90, 120, and 180 min followed by immediate replacement with fresh medium. The experiment lasted 3 h. The samples from the donor cell were filtered (syringe nylon filter, 13 mm diameter, pore size 0.45 μm). The concentrations of the samples were measured in a 96-well UV black plate (Costar) using a spectrophotometer (Spectramax 190; Molecular devices, Molecular Devices Corporation, San Jose, CA, USA). The kinetic curves of the dissolution/release of pure RLZ and RLZ from the solid samples were obtained.
The dissolution performance parameter (DPP), was calculated as follows:(16) DPP=AUCactual/AUCtheoretical×100% where AUCactual is the integral area under the curve C0Ct, and AUCtheoretical is the integral area under the curve CmaxCmax. Dissolution efficacy after 60 min (DE60)—a percentage of the area of the rectangle described by 100% dissolution at 60 min was determined by the calculation of the area under a dissolution curve up to 60 min by the following equation [49]:(17) DE60=∫060Qdt/Q100%×60×100% where Q is the percentage of the dissolved drug, t is the dissolution time point at 60 min.

Consider `CC(O)COC[C@H]1O[C@@H]2O[C@H]3[C@H](O)[C@@H](O)[C@@H](O[C@H]4[C@H](O)[C@@H](O)[C@@H](O[C@H]5[C@H](O)[C@@H](O)[C@@H](O[C@H]6[C@H](O)[C@@H](O)[C@@H](O[C@H]7[C@H](O)[C@@H](O)[C@@H](O[C@H]8[C@H](O)[C@@H](O)[C@@H](O[C@H]1[C@H](O)[C@H]2O)O[C@@H]8COCC(C)O)O[C@@H]7COCC(C)O)O[C@@H]6COCC(C)O)O[C@@H]5COCC(C)O)O[C@@H]4COCC(C)O)O[C@@H]3COCC(C)O` (stereo partly drawn) [HP-β-CD, hydroxypropyl-β-cyclodextrin], for which, in data set [1], the “Stability constant of cyclodextrin complex with RLZ” value was 2327 M⁻¹.

With `OC[C@H]1O[C@@H]2O[C@H]3[C@H](O)[C@@H](O)[C@@H](O[C@H]4[C@H](O)[C@@H](O)[C@@H](O[C@H]5[C@H](O)[C@@H](O)[C@@H](O[C@H]6[C@H](O)[C@@H](O)[C@@H](O[C@H]7[C@H](O)[C@@H](O)[C@@H](O[C@H]1[C@H](O)[C@H]2O)O[C@@H]7CO)O[C@@H]6CO)O[C@@H]5CO)O[C@@H]4CO)O[C@@H]3CO` [α-CD, α-cyclodextrin], the “Fold lower association constant of RLZ as compared to SBE-β-CD” value in data set [2] is on record as “approximately 11 fold”. Besides, the “Complexation (stability) constant KCS of RLZ/CD complex” value in data set [2] (pH 6.8, 310.15 K) was found to be 102.3 M⁻¹.

Turning to `Nc1nc2ccc(OC(F)(F)F)cc2s1` [RLZ_raw], in data set [3], the “Increase of flux across the membrane, 30–180 min versus up to 30 min” value is given as 1.3 fold. For the same compound, in data set [4], the “DE60, dissolution efficacy at 60 min” value worked out at 30.0%; the “DPP, dissolution performance parameter” value was 46.2%; the “Q15, amount of RLZ dissolved at 15 min” value was determined as 22.9%. Besides, the “Dose dissolved during 180 min” value in data set [4] (listed as raw RLZ) was 62%.

Take “sulfobutylether-β-cyclodextrin [SBE-β-CD]”: the “Fold more stable RLZ complex as compared to α-CD” value in data set [2] (from Table 2) worked out at 11 fold. Besides, the “Complexation (stability) constant KCS of RLZ/CD complex” value in data set [2] (pH 6.8, 298.15 K) worked out at 1116.0 M⁻¹.

As for `COC[C@H]1O[C@@H]2O[C@H]3[C@H](O)[C@@H](OC)[C@@H](O[C@H]4[C@H](O)[C@@H](OC)[C@@H](O[C@H]5[C@H](O)[C@@H](OC)[C@@H](O[C@H]6[C@H](O)[C@@H](OC)[C@@H](O[C@H]7[C@H](O)[C@@H](OC)[C@@H](O[C@H]8[C@H](O)[C@@H](OC)[C@@H](O[C@H]1[C@H](O)[C@H]2OC)O[C@@H]8COC)O[C@@H]7COC)O[C@@H]6COC)O[C@@H]5COC)O[C@@H]4COC)O[C@@H]3COC` [DM-β-CD, 2,6-di-O-methyl-β-cyclodextrin], the “Stability constant of cyclodextrin complex with RLZ” value in data set [1] was 1609.1 M⁻¹.

Turning to `Nc1nc2ccc(OC(F)(F)F)cc2s1` [RLZ_gr], the “Increase of flux across the membrane, 30–180 min versus up to 30 min” value in data set [3] is given as 1.3 fold. In data set [4], the “DE60, dissolution efficacy at 60 min” value came out at 39.9%; the “DPP, dissolution performance parameter” value was 57.0%; the “Q15, amount of RLZ dissolved at 15 min” value came out at 28.3%. The “Dose dissolved during 180 min” value in data set [4] (listed as ground RLZ) was 72%. Also, the “Similarity factor f2” value in data set [4] (reference raw RLZ, f2 > 50 shows similarity) came out at 49.9.
